We go through 11 compounds from ChEMBL document CHEMBL1201862, “PubChem BioAssay data set” (2004).

As a reminder, the GI50 is the concentration giving 50% growth inhibition.

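These data come from cells grown in 96-well plates and exposed to compound for 48 hours at five concentrations. GI50 marks 50% less growth.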 Calls of active or inactive are those of the source. No stated cut-off is given here; in the data, active = GI50 up to about 1.1 µM and inactive = higher.

Some test systems named below: U-251; HCT-116; SF-539; MDA-MB-231; Hs-578T; UACC-257; SW-620; 786-0; Malme-3M; CAKI-1; PC-3; OVCAR-8; HL-60; SK-MEL-28; UO-31; HOP-92; ACHN; EKVX; OVCAR-5; RXF 393.
Common to all, as to experiment: DTP human tumour cell line panel, 48 h

In the case of `O=C(CCN1CCOCC1)Nc1ccc2sc3ccccc3c(=O)c2n1`, the GI50 in the experiment on U-251 was 42.9 µM (inactive); in the experiment on HCT-116 it was 23 µM (inactive); with SF-539 it was 60.5 µM (inactive); with MDA-MB-231, 35.6 µM (inactive); in the experiment on Hs-578T, 36.4 µM (inactive); with UACC-257 it was 62.2 µM (inactive). Further, the GI50 with SW-620 was 27.4 µM (inactive); with 786-0 it was 31.6 µM (inactive); with Malme-3M it was 20.7 µM (inactive); with CAKI-1, 23.6 µM (inactive); in the experiment on PC-3, 18.2 µM (inactive); in the experiment on OVCAR-8, 35.9 µM (inactive). The GI50 is > 100 µM (inactive) with HL-60; 53.5 µM (inactive) in the experiment with SK-MEL-28; 25.8 µM (inactive) in the experiment with UO-31; 45.3 µM (inactive) with HOP-92; 35.5 µM (inactive) with ACHN; 58.2 µM (inactive) in the experiment on EKVX. Besides, the GI50 in the experiment with OVCAR-5 was > 100 µM (inactive).
As to `Cc1ccc(/N=N/C(=N\c2ccc(Cl)cc2)c2ccc(N(CCC#N)CCC#N)cc2)cc1`, the GI50 was 25.2 µM (inactive) with U-251; 49 µM (inactive) in the experiment with HCT-116; 47.4 µM (inactive) in the experiment with SF-539; 36.8 µM (inactive) in the experiment with RXF 393; 25.8 µM (inactive) in the experiment on MDA-MB-231; 33.7 µM (inactive) in the experiment on Hs-578T. Besides, the GI50 in the experiment with UACC-257 was 12.4 µM (inactive); in the experiment with SW-620, 58.9 µM (inactive); in the experiment on 786-0 it was 52 µM (inactive); in the experiment on CAKI-1, > 100 µM (inactive); in the experiment on PC-3, 22.6 µM (inactive); with OVCAR-8, 63.8 µM (inactive). Also, the GI50 in the experiment with SK-MEL-28 is 85.5 µM (inactive); in the experiment on UO-31, 6.89 µM (inactive); with HOP-92, 46.3 µM (inactive); in the experiment on ACHN, 42 µM (inactive); with EKVX, 22.9 µM (inactive); with OVCAR-5 it was > 100 µM (inactive).
On to `O=C1CCC2(c3ccc(Cl)cc3)Nc3ccncc3N12` (stereo unspecified), for which the GI50 with U-251 is > 10 µM (inactive); in the experiment on HCT-116 it was > 10 µM (inactive); with SF-539 it was > 10 µM (inactive); in the experiment on MDA-MB-231, 0.00507 µM (active); in the experiment with Hs-578T, > 10 µM (inactive); in the experiment with UACC-257, > 10 µM (inactive). For the same compound, the GI50 in the experiment on SW-620, with 786-0, with Malme-3M, in the experiment with PC-3, with OVCAR-8 and with HL-60 was > 10 µM (inactive) in each case. Also, the GI50 with UO-31, with HOP-92, in the experiment with ACHN, in the experiment on EKVX and in the experiment with OVCAR-5 was > 10 µM (inactive) each time.
As to `O=C(Cn1c(=O)oc2ccc(C(=O)c3cccc(Cl)c3)cc21)c1ccccc1`, the GI50 is > 100 µM (inactive) in the experiment with U-251; > 10 µM (inactive) in the experiment with HCT-116; > 100 µM (inactive) in the experiment on SF-539; > 100 µM (inactive) in the experiment with MDA-MB-231; > 100 µM (inactive) in the experiment with Hs-578T; 19.5 µM (inactive) in the experiment on UACC-257. For the same compound, the GI50 in the experiment with SW-620 was 65.6 µM (inactive); with 786-0, > 10 µM (inactive); in the experiment on Malme-3M it was 63 µM (inactive); with CAKI-1, > 100 µM (inactive); with PC-3, > 100 µM (inactive); in the experiment on OVCAR-8, > 100 µM (inactive). Besides, the GI50 with HL-60 is 19.3 µM (inactive); in the experiment with SK-MEL-28, > 100 µM (inactive); in the experiment on UO-31 it was 99.8 µM (inactive); in the experiment with HOP-92, 7.14 µM (inactive); with ACHN it was > 100 µM (inactive); in the experiment with EKVX, 30.1 µM (inactive). Besides, the GI50 with OVCAR-5 is > 100 µM (inactive).
As for `CC(=O)OCC(C)(COC(C)=O)N1C(=O)C2C3c4ccccc4C(c4ccccc43)C2C1=O` (stereo unspecified), the GI50 was > 100 µM (inactive) in the experiment with U-251; 33 µM (inactive) in the experiment on HCT-116; > 100 µM (inactive) with SF-539; 35.6 µM (inactive) in the experiment on RXF 393; > 100 µM (inactive) in the experiment with MDA-MB-231; > 100 µM (inactive) with Hs-578T. The GI50 with UACC-257, in the experiment with SW-620, in the experiment on 786-0, with CAKI-1, with PC-3 and in the experiment with OVCAR-8 was > 100 µM (inactive) each time. Further, the GI50 with HL-60, in the experiment on UO-31, in the experiment with HOP-92, with ACHN, in the experiment on EKVX and in the experiment with OVCAR-5 was > 100 µM (inactive) in each case.
`C(=C/c1ccc2nc(-c3ccc(/C=C/C=N/NC4=NCCCN4)cc3)cn2c1)/C=N/NC1=NCCCN1`: the GI50 with U-251 is 16.1 µM (inactive); with HCT-116 it was 6.81 µM (inactive); with SF-539, 25.5 µM (inactive); in the experiment on RXF 393, 23.8 µM (inactive); with MDA-MB-231 it was 15.2 µM (inactive); in the experiment with Hs-578T, 15.8 µM (inactive). Moreover, the GI50 was 10.6 µM (inactive) with UACC-257; 42.9 µM (inactive) in the experiment with 786-0; 12.1 µM (inactive) in the experiment with CAKI-1; 20.3 µM (inactive) in the experiment on PC-3; 17.6 µM (inactive) with OVCAR-8; > 100 µM (inactive) in the experiment with SK-MEL-28. Further, the GI50 was > 100 µM (inactive) in the experiment on UO-31; > 100 µM (inactive) in the experiment with HOP-92; 46.7 µM (inactive) in the experiment on ACHN; 18.8 µM (inactive) in the experiment on EKVX; 49.9 µM (inactive) with OVCAR-5.
As for `O=C1CSC2=NC3=C(COC/C3=C\c3ccc(F)cc3)C(c3ccc(F)cc3)N12` (stereo unspecified), the GI50 in the experiment on U-251 was 63.7 µM (inactive); with HCT-116 it was 35.9 µM (inactive); in the experiment with SF-539, > 100 µM (inactive); with RXF 393 it was 59.8 µM (inactive); with MDA-MB-231 it was > 100 µM (inactive); in the experiment with Hs-578T, > 100 µM (inactive). Further, the GI50 with UACC-257 is > 100 µM (inactive); with SW-620 it was 46 µM (inactive); in the experiment with 786-0, 59.4 µM (inactive); with CAKI-1 it was > 100 µM (inactive); in the experiment with PC-3, 34.8 µM (inactive); with OVCAR-8, 55.7 µM (inactive). For the same compound, the GI50 in the experiment on HL-60 is 12.6 µM (inactive); in the experiment on UO-31, 38.4 µM (inactive); with HOP-92, 93.5 µM (inactive); in the experiment with ACHN, 71 µM (inactive); in the experiment with EKVX, 83.8 µM (inactive); in the experiment on OVCAR-5 it was > 100 µM (inactive).
For `COC(=O)C(Cc1ccccc1)NP(=O)(O)OCC1OC(n2cc(F)c(=O)[nH]c2=O)CC1O` (stereo unspecified), the GI50 is 8.99 µM (inactive) in the experiment on U-251; 5.53 µM (inactive) in the experiment with HCT-116; 0.991 µM (active) in the experiment with SF-539; > 100 µM (inactive) in the experiment with RXF 393; > 100 µM (inactive) in the experiment on MDA-MB-231; > 82.8 µM (inactive) with Hs-578T. In addition, the GI50 in the experiment with UACC-257 is > 56 µM (inactive); in the experiment on SW-620, > 100 µM (inactive); with 786-0 it was 4.14 µM (inactive); with Malme-3M, > 100 µM (inactive); in the experiment on CAKI-1, 3.72 µM (inactive); with PC-3 it was > 78.5 µM (inactive). For the same compound, the GI50 in the experiment with OVCAR-8 was 9.12 µM (inactive); in the experiment with HL-60, 10.5 µM (inactive); in the experiment with SK-MEL-28 it was > 67 µM (inactive); in the experiment on UO-31, 5.24 µM (inactive); with ACHN it was 1.44 µM (inactive); in the experiment with EKVX, > 100 µM (inactive). For the same compound, the GI50 in the experiment on OVCAR-5 is > 100 µM (inactive).
As to `CN(C)CCOc1ccc(I)cc1Cc1ccccc1`, the GI50 in the experiment on U-251 is 12.4 µM (inactive); with HCT-116, 10.6 µM (inactive); with SF-539 it was 13.8 µM (inactive); in the experiment on RXF 393 it was 15 µM (inactive); with MDA-MB-231, 3.89 µM (inactive); in the experiment on Hs-578T, 11.1 µM (inactive). In addition, the GI50 with UACC-257 is 15.2 µM (inactive); in the experiment with SW-620, 14.2 µM (inactive); in the experiment with 786-0, 10.7 µM (inactive); in the experiment with Malme-3M, 15.9 µM (inactive); in the experiment on PC-3 it was 8.28 µM (inactive); in the experiment on OVCAR-8, 16 µM (inactive). Further, the GI50 was 4.74 µM (inactive) with HL-60; 4.74 µM (inactive) in the experiment on SK-MEL-28; 7.69 µM (inactive) in the experiment on UO-31; 12.2 µM (inactive) in the experiment on ACHN; 14.5 µM (inactive) in the experiment on EKVX; 14.7 µM (inactive) in the experiment with OVCAR-5.
For the compound `CC[C@@H](/C=C\CCC1(C[C@H](O)CCC=C(C)C)OCCO1)O[Si](C(C)C)(C(C)C)C(C)C`, the GI50 in the experiment with U-251 was 17.3 µM (inactive); with HCT-116, 17 µM (inactive); in the experiment with SF-539 it was 18.5 µM (inactive); in the experiment on RXF 393 it was 17.3 µM (inactive); with MDA-MB-231, 17.3 µM (inactive); in the experiment with Hs-578T it was 37.3 µM (inactive). In addition, the GI50 with UACC-257 is 22.5 µM (inactive); in the experiment on SW-620 it was 26.4 µM (inactive); with 786-0, 17.5 µM (inactive); with CAKI-1, 28.6 µM (inactive); with PC-3 it was 29.8 µM (inactive); in the experiment on OVCAR-8, 19.9 µM (inactive). In addition, the GI50 in the experiment with HL-60 was 16.7 µM (inactive); in the experiment on SK-MEL-28 it was 26.7 µM (inactive); in the experiment on UO-31 it was 19.2 µM (inactive); in the experiment with HOP-92, 28.5 µM (inactive); in the experiment with ACHN it was 18.3 µM (inactive); in the experiment on EKVX it was 28.8 µM (inactive). The GI50 with OVCAR-5 is 22 µM (inactive).
Consider `Cc1c(-c2ccccc2)[nH]c2cn[nH]c(=O)c12`, for which the GI50 was > 100 µM (inactive) in the experiment on U-251; > 100 µM (inactive) in the experiment with HCT-116; > 100 µM (inactive) in the experiment on SF-539; > 100 µM (inactive) in the experiment with MDA-MB-231; 74.6 µM (inactive) in the experiment on Hs-578T; > 100 µM (inactive) in the experiment with UACC-257. Moreover, the GI50 is > 100 µM (inactive) in the experiment on SW-620; > 100 µM (inactive) in the experiment with 786-0; > 100 µM (inactive) with Malme-3M; > 100 µM (inactive) with CAKI-1; 67.9 µM (inactive) with PC-3; > 100 µM (inactive) in the experiment with OVCAR-8. Also, the GI50 with HL-60 is 10.7 µM (inactive); in the experiment on SK-MEL-28 it was > 100 µM (inactive); with UO-31 it was 80 µM (inactive); with HOP-92 it was > 100 µM (inactive); in the experiment with ACHN, > 100 µM (inactive); with EKVX it was 34.6 µM (inactive). Also, in the experiment on OVCAR-5, the GI50 is > 100 µM (inactive).
